Measurements reported in patent US7060721B1, “Imidazole compounds and medicinal use thereof” (Fujisawa Pharmaceutical Co., Ltd., priority 1998, dated 2006).

Legend:
[1] = tested on: db/db mice; assay: Blood sugar level depressing activity in db/db mice; format: in vivo; settings: female db/db mice; dose 3.2 mg/kg; drug-mixed diet given for 14 days; difference between db/db control group and +/+ mice taken as 100%
Experimental: (Blood Sugar Level Depressing Activity in db/db Mice)
Female C57BL/KsJ-dbm db+/db+, C57BL/KsJ-dbm +m/+m (Jackson Laboratory) mice (5 weeks old) were purchased and subjected to the test after 2–3 weeks of acclimating period.
The test drug was mixed with a powder diet (CE-2, Clea Japan, Inc.) in a mortar. In the case of administration in 100 mg/kg, the mixing proportion was 0.1%, in the case of 30 mg/kg, the proportion was 0.03% and in the case of 10 mg/kg, the proportion was 0.01%. The diet was changed twice a week for each group. The amount of the diet given and the amount left were recorded and the diet intake was calculated by determining the difference.
The female db/db mice were grouped according to body weight, blood sugar level and triglyceride concentration in plasma. […] The blood sugar value, triglyceride concentration in plasma and insulin concentration in plasma were measured at day 0 and day 14, and blood sugar value and triglyceride concentration in plasma were measured at day 7. Body weight was measured at day 0, day 7 and day 14. […]
Blood sugar value was measured using 10–15 μl of plasma and in accord with glucose oxidase method (glucose CII-Test Wako, Wako Pure Chemicals Co., Ltd.). The triglyceride concentration in plasma was measured using 10–15 μl of plasma and in accord with GPO-p-chlorophenol method (triglyceride G-Test Wako) or GPO-DAOS method (triglyceride E-Test Wako). […]

Row | melting point | Compound | Blood sugar decrease (%) [1]
1 | 173 to 175 °C | CCC/C=C/S(=O)(=O)NC(=O)/C=C/c1c(Cl)nc(CC)n1Cc1ccc(C#Cc2ccccc2)cc1Cl [Example 58, (E)-3-(4-chloro-1-(2-chloro-4-(phenylethynyl)benzyl)-2-ethylimidazol-5-yl)-N-((E)-1-penten-1-ylsulfonyl)-2-propenamide] | 
2 | 250 to 252 °C | CCc1nc(Cl)c(/C=C/C(=O)NS(=O)(=O)c2ccc(C)cc2)n1Cc1ccc(/C=C/c2ccccc2)cc1Cl [Example 60, (E)-3-(4-chloro-1-(2-chloro-4-((E)-2-phenylethenyl)benzyl)-2-ethylimidazol-5-yl)-N-(4-methylbenzenesulfonyl)-2-propenamide] | 
3 | 210 to 213 °C | CCCCS(=O)(=O)NC(=O)/C=C/c1c(Cl)nc(CC)n1Cc1ccc(/C=C/c2ccccc2)cc1Cl [Example 61, (E)-N-(1-butanesulfonyl)-3-(4-chloro-1-(2-chloro-4-((E)-2-phenylethenyl)benzyl)-2-ethylimidazol-5-yl)-2-propenamide] | 
4 | 197 to 200 °C | CCCCCS(=O)(=O)NC(=O)/C=C/c1c(Cl)nc(CC)n1Cc1ccc(/C=C/c2ccccc2)cc1Cl [Example 62, (E)-3-(4-chloro-1-(2-chloro-4-((E)-2-phenylethenyl)benzyl)-2-ethylimidazol-5-yl)-N-(1-pentanesulfonyl)-2-propenamide] | 
5 | 197 to 200 °C | CCC/C=C/S(=O)(=O)NC(=O)/C=C/c1c(Cl)nc(CC)n1Cc1ccc(/C=C/c2ccccc2)cc1Cl [Example 63, (E)-3-(4-chloro-1-(2-chloro-4-((E)-2-phenylethenyl)benzyl)-2-ethylimidazol-5-yl)-N-((E)-1-penten-1-ylsulfonyl)-2-propenamide] | 
6 | 251 to 253 °C | Cc1nc(C)n(Cc2ccc(Br)cc2Cl)c1/C=C/C(=O)NS(=O)(=O)/C=C/c1ccccc1 [Example 64, (E)-3-(1-(4-bromo-2-chlorobenzyl)-2,4-dimethylimidazol-5-yl)-N-((E)-2-phenylethenesulfonyl)-2-propenamide] | 
7 | 208 to 209 °C | CCCCCOc1ccc(Cn2c(C)nc(Br)c2/C=C/C(=O)NS(=O)(=O)/C=C/c2ccccc2)c(Cl)c1 [Example 65, (E)-3-(4-bromo-1-(2-chloro-4-(1-pentyloxy)benzyl)-2-methylimidazol-5-yl)-N-((E)-2-phenylethenesulfonyl)-2-propenamide] | 
8 | 171 to 172 °C | CCCCCOc1ccc(Cn2c(/C=C(\Cc3ccccc3)C(=O)NS(=O)(=O)/C=C/c3ccccc3)cnc2C)c(Cl)c1 [Example 67, (E)-2-benzyl-3-(1-(2-chloro-4-(1-pentyloxy)benzyl)-2-methylimidazol-5-yl)-N-((E)-2-phenylethenesulfonyl)-2-propenamide] | 
9 | 168 to 169 °C | CCCCCOc1ccc(Cn2c(/C=C(\CCCCC)C(=O)NS(=O)(=O)/C=C/c3ccccc3)cnc2C)c(Cl)c1 [Example 68, (E)-3-(1-(2-chloro-4-(1-pentyloxy)benzyl)-2-methylimidazol-5-yl)-2-(1-pentyl)-N-((E)-2-phenylethenesulfonyl)-2-propenamide] | 
10 | 156 to 158 °C | CCCCCOc1ccc(Cn2c(/C=C(\Cc3cccnc3)C(=O)NS(=O)(=O)/C=C/c3ccccc3)cnc2C)c(Cl)c1 [Example 69, (E)-3-(1-(2-chloro-4-(1-pentyloxy)benzyl)-2-methylimidazol-5-yl)-2-((3-pyridyl)methyl)-N-((E)-2-phenylethenesulfonyl)-2-propenamide] | 
11 | 143 to 145 °C | CCCCCOc1ccc(Cn2c(/C=C(\C)C(=O)NS(=O)(=O)/C=C/c3ccccc3)cnc2C)c(Cl)c1 [Example 70, (E)-3-(1-(2-chloro-4-(1-pentyloxy)benzyl)-2-methylimidazol-5-yl)-2-methyl-N-((E)-2-phenylethenesulfonyl)-2-propenamide] | 
12 | 156 to 157 °C | CCCCCOc1ccc(Cn2c(C)nc(Cl)c2/C=C(\C)C(=O)NS(=O)(=O)/C=C/c2ccccc2)c(Cl)c1 [Example 71, (E)-3-(4-chloro-1-(2-chloro-4-(1-pentyloxy)benzyl)-2-methylimidazol-5-yl)-2-methyl-N-((E)-2-phenylethenesulfonyl)-2-propenamide] | 
13 | 107 to 110 °C | CCCCCOc1ccc(Cn2c(C)nc(Cl)c2C(=O)NS(=O)(=O)/C=C/c2ccccc2)c(Cl)c1 [Example 72, 4-chloro-1-(2-chloro-4-(1-pentyloxy)benzyl)-2-methyl-5-((E)-2-phenylethenesulfonyl-carbamoyl)-1H-imidazole] | 
14 | 109 to 111 °C | CCCCCOc1ccc(Cn2c(C)nc(Cl)c2COC(=O)NS(=O)(=O)c2ccc(C)cc2)c(Cl)c1 [Example 73, (4-chloro-1-(2-chloro-4-(1-pentyloxy)benzyl)-2-methyl-1H-imidazol-5-yl)methyl N-(4-methylbenzenesulfonyl)carbamate] | 

More lines, now with the values behind:

Row | Compound | melting point | Blood sugar decrease (%) [1]
15 | Cc1ccc(S(=O)(=O)NC(=O)/C=C/c2c(Cl)nc(C)n2Cc2ccc(-c3ccccc3)cc2Cl)cc1 [Compound A, (E)-3-[4-chloro-1-(2-chloro-4-phenylbenzyl)-2-methylimidazol-5-yl]-N-((4-methylbenzene)sulfonyl)-2-propenamide] |  | 63%
16 | CCC/C=C/S(=O)(=O)NC(=O)/C=C/c1c(Cl)nc(C)n1Cc1ccc(/C=C/c2ccccc2)cc1Cl [Example 42, (E)-3-(4-chloro-1-(2-chloro-4-((E)-2-phenylethenyl)benzyl)-2-methylimidazol-5-yl)-N-((E)-1-penten-1-ylsulfonyl)-2-propenamide] | 226 to 228 °C | 
17 | CCCCCS(=O)(=O)NC(=O)/C=C/c1c(Cl)nc(C)n1Cc1ccc(C#Cc2ccccc2)cc1Cl [Example 44, (E)-3-(4-chloro-1-(2-chloro-4-(phenylethynyl)benzyl)-2-methylimidazol-5-yl)-N-(1-pentanesulfonyl)-2-propenamide] | 207 to 209 °C | 
18 | CCC/C=C/S(=O)(=O)NC(=O)/C=C/c1c(Cl)nc(C)n1Cc1ccc(C#Cc2ccccc2)cc1Cl [Example 45, (E)-3-(4-chloro-1-(2-chloro-4-(phenylethynyl)benzyl)-2-methylimidazol-5-yl)-N-((E)-1-penten-1-ylsulfonyl)-2-propenamide] | 207 to 210 °C | 
19 | Cc1nc(Cl)c(/C=C/C(=O)NS(=O)(=O)/C=C/c2ccccc2)n1Cc1ncc(C(F)(F)F)cc1Cl [Example 47, (E)-3-(4-chloro-1-((3-chloro-5-(trifluoromethyl)pyridin-2-yl)methyl)-2-methylimidazol-5-yl)-N-((E)-2-phenylethenylsulfonyl)-2-propenamide] | 249 to 252 °C | 
20 | CCCCCS(=O)(=O)NC(=O)/C=C/c1c(Cl)nc(C)n1Cc1ccc(NC(=O)OC(C)(C)C)cc1Cl [Example 49, (E)-3-(1-(4-(tert-butoxycarbonylamino)-2-chlorobenzyl)-4-chloro-2-methylimidazol-5-yl)-N-(1-pentanesulfonyl)-2-propenamide] | 202 to 204 °C | 
21 | CCC/C=C/S(=O)(=O)NC(=O)/C=C/c1c(Cl)nc(C)n1Cc1ccc(NC(=O)OC(C)(C)C)cc1Cl [Example 50, (E)-3-(1-(4-(tert-butoxycarbonylamino)-2-chlorobenzyl)-4-chloro-2-methylimidazol-5-yl)-N-((E)-1-penten-1-ylsulfonyl)-2-propenamide] | 209 to 210 °C | 
22 | CCc1nc(Cl)c(/C=C/C(=O)NS(=O)(=O)/C=C/c2ccccc2)n1Cc1ccc(Br)cc1Cl [Example 53, (E)-3-(1-(4-bromo-2-chlorobenzyl)-4-chloro-2-ethylimidazol-5-yl)-N-((E)-2-phenylethenesulfonyl)-2-propenamide] | 209 to 210 °C | 
23 | CCc1nc(Cl)c(/C=C/C(=O)NS(=O)(=O)/C=C/c2ccccc2)n1Cc1ccc(C#Cc2ccccc2)cc1Cl [Example 54, (E)-3-(4-chloro-1-(2-chloro-4-(phenylethynyl)benzyl)-2-ethylimidazol-5-yl)-N-((E)-2-phenylethenesulfonyl)-2-propenamide] | 233 to 234 °C | 
24 | CCCCS(=O)(=O)NC(=O)/C=C/c1c(Cl)nc(CC)n1Cc1ccc(C#Cc2ccccc2)cc1Cl [Example 56, (E)-N-(1-butanesulfonyl)-3-(4-chloro-1-(2-chloro-4-(phenylethynyl)benzyl)-2-ethylimidazol-5-yl)-2-propenamide] | 165 to 167 °C | 
25 | CCCCCS(=O)(=O)NC(=O)/C=C/c1c(Cl)nc(CC)n1Cc1ccc(C#Cc2ccccc2)cc1Cl [Example 57, (E)-3-(4-chloro-1-(2-chloro-4-(phenylethynyl)benzyl)-2-ethylimidazol-5-yl)-N-(1-pentanesulfonyl)-2-propenamide] | 161 to 163 °C | 
